# Assay results reported in US4086417A, “Cytidine nucleotide derivatives” (Asahi Kasei Kogyo Kabushiki Kaisha, priority 1974, dated 1978).
# Counter-ions that a name gives are not always drawn. Like-named read-outs stand apart in the source and are kept apart here.
# How the values were obtained:
# [1] = Solubility test: solubility in water; type: physicochemical
# Description: In the aforesaid examples, the products were obtained as white solids.
# In Table 1, -Ara-C means "-1-β-D-arabinofuranosylcytosine" and -5'-Pna and -5'-PNa2 mean "-1-β-D-arabinofuranosylcytosine-5'-phosphate monosodium salt" and "-1-β-D-arabinofuranosylcytosine-5'-phosphate disodium salt," respectively.
# leukemia L-1210 [2] = assay: Antitumour activity in mice inoculated intraperitoneally with leukemia L-1210 (survival, T/C); type: in vivo, CDF-1 male mice; details: Mus musculus, L1210, ip, directly after injection of L-1210, after 2 days and after 6 days; for response vs control in vivo at 100 mg/kg: 100 mg/kg i.p.; for response vs control in vivo at 200 mg/kg: 200 mg/kg i.p.; for response vs control in vivo at 400 mg/kg: 400 mg/kg i.p.
# Experimental: The antitumour activity for mice of the test material was evaluated by means of survival rate comparison, T/C (%), that is, 100 times the mean survival period of the groups injected with the test material divided by the mean survival period of the comparison groups which were not injected with the test material.
# Further, for comparison, the following materials were also subjected to the same biological test: […]
# leukemia L-1210 [3] = details: background; cited from earlier work
# [4] = cited from earlier work
# deoxycytidine deaminase = details: background; cited from earlier work
Solubility in water [1] [mg/mL],Structure (SMILES),response vs control in vivo at 100 mg/kg (leukemia L-1210 [2]) [%],response vs control in vivo at 200 mg/kg (leukemia L-1210 [2]) [%],response vs control in vivo at 400 mg/kg (leukemia L-1210 [2]) [%],other results
> 10,O=C(Nc1ccn([C@@H]2O[C@H](COP(=O)(O)O)[C@@H](O)[C@@H]2O)c(=O)n1)C12CC3CC(CC(C3)C1)C2 [N^4 -Adamantoyl-5'-PNa2],–,–,–,–
> 50,CCCCCCCCCCCCCCCCC(=O)Nc1ccn([C@@H]2O[C@H](COP(=O)(O)O)[C@@H](O)[C@@H]2O)c(=O)n1 [N^4 -Margaroyl-5'-PNa2],–,–,–,–
> 30,"CCCCCCCCCCCCCCCC(=O)Nc1ccn([C@@H]2O[C@H](COP(=O)(O)O)[C@@H](O)[C@@H]2O)c(=O)n1 [N^4 -Palmitoyl-5'-PNa, N^4-palmitoyl-1-β-D-arabinofuranosylcytosine-5'-phosphate monosodium]",> 349,> 342,98,–
2,"O=C(Nc1ccn([C@@H]2O[C@H](COP(=O)(O)O)[C@@H](O)[C@@H]2O)c(=O)n1)C12CC3CC(CC(C3)C1)C2 [N^4 -Adamantoyl-5'-PNa, N^4-adamantoyl-1-β-D-arabinofuranosylcytosine-5'-phosphate monosodium]",–,–,–,–
> 150,CCCCCCCCCCCCCCCC(=O)Nc1ccn([C@@H]2O[C@H](COP(=O)(O)O)[C@@H](O)[C@@H]2O)c(=O)n1 [N^4 -Palmitoyl-5'-PNa2],–,–,–,–

# The remaining lines, values behind:
Structure (SMILES),Solubility in water [1] [mg/mL],response vs control in vivo at 100 mg/kg (leukemia L-1210 [2]) [%],response vs control in vivo at 200 mg/kg (leukemia L-1210 [2]) [%],response vs control in vivo at 400 mg/kg (leukemia L-1210 [2]) [%],other results
"CCCCCCCCCCCCCCCCCC(=O)Nc1ccn([C@@H]2O[C@H](CO)[C@@H](O)[C@@H]2O)c(=O)n1 [N^4 -Stearoyl-Ara-C, N^4-stearoyl-1-β-D-arabinofuranosylcytosine]",–,> 274,123,111,solubility [1]: < 0.01 mg/mL
"CCCCCCCCCCCCCCCCC(=O)Nc1ccn([C@@H]2O[C@H](COP(=O)(O)O)[C@@H](O)[C@@H]2O)c(=O)n1 [N^4 -Margaroyl-5'-PNa, N^4-margaroyl-1-β-D-arabinofuranosylcytosine-5'-phosphate monosodium]",> 10,> 395,> 382,101,–
O=c1ccn([C@@H]2O[C@H](CO)[C@@H](O)[C@@H]2O)c(=O)[nH]1 [uracil arabinoside],–,–,–,–,Antileukemial activity (in words) (leukemia L-1210 [3]): possesses no antileukemial activity
"CCCCCCCCCCCCCCCCCC(=O)Nc1ccn([C@@H]2O[C@H](COP(=O)(O)O)[C@@H](O)[C@@H]2O)c(=O)n1 [N^4 -Stearoyl-5'-PNa2, N^4-stearoyl-1-β-D-arabinofuranosylcytosine-5'-phosphate disodium salt]",–,–,–,–,Solubility in water ([1]; disodium salt): > 50 mg/mL
"CCCCCCCCCCCCCCCCCC(=O)Nc1ccn([C@@H]2O[C@H](COP(=O)(O)O)[C@@H](O)[C@@H]2O)c(=O)n1 [N^4 -Stearoyl-5'-PNa, N^4-stearoyl-1-β-D-arabinofuranosylcytosine-5'-phosphate monosodium salt]",–,> 363,> 338,104,Solubility in water ([1]; monosodium salt): > 10 mg/mL
O=C(Nc1ccn([C@@H]2O[C@H](CO)[C@@H](O)[C@@H]2O)c(=O)n1)C12CC3CC(CC(C3)C1)C2 [N^4 -Adamantoyl-Ara-C],–,–,–,–,solubility [1]: 0.01 mg/mL
"CCCCCCCCCCCCCCCC(=O)Nc1ccn([C@@H]2O[C@H](CO)[C@@H](O)[C@@H]2O)c(=O)n1 [N^4 -Palmitoyl-Ara-C, N^4-palmitoyl-1-β-D-arabinofuranosylcytosine]",–,> 346,83,78,solubility [1]: 0.01 mg/mL
"N=c1ccn2c(n1)O[C@H]1[C@H](O)[C@@H](CO)O[C@H]12 [2,2'-ANHYDROCYTOSINE ARABINOSIDE, 2,2'-anhydrocytosine arabinoside]",–,–,–,–,Biological half life / excretion (in words) ([4]; in vivo): the biological half life of this derivative is as short as that of cytosine arabinoside; Antileukemial activity (in words) (leukemia L-1210 [3]): does not have antileukemial activity; Deamination / resistance to deaminase (in words) (deoxycytidine deaminase): SHOWS HIGH RESISTANCE TO THE DEAMINOSE
CCCCCCCCCCCCCCCCCCCCCCCCCCCC(=O)Nc1ccn([C@@H]2O[C@H](CO)[C@@H](O)[C@@H]2O)c(=O)n1 [N^4 -Montanoyl-Ara-C],–,–,–,–,solubility [1]: < 0.01 mg/mL
"CCCCCCCCCCCCCCCCCCCCCCCCCCCC(=O)Nc1ccn([C@@H]2O[C@H](COP(=O)(O)O)[C@@H](O)[C@@H]2O)c(=O)n1 [N^4 -Montanoyl-5'-PNa, N^4-montanoyl-1-β-D-arabinofuranosylcytosine-5'-phosphate monosodium]",1,–,–,–,–
"Nc1ccn([C@@H]2O[C@H](CO)[C@@H](O)[C@@H]2O)c(=O)n1 [Ara-C, 1-β-D-arabinofuranosylcytosine]",–,127,136,164,Biological half life / excretion (in words) ([4]; background): the biological half life of the medicament is short; Antileukemial activity (in words) (leukemia L-1210 [3]): one of the most effective known antileukemial agents; Deamination / resistance to deaminase (in words) (deoxycytidine deaminase): readily converted into uracil arabinoside
"CCCCCCCC/C=C\CCCCCCCC(=O)Nc1ccn([C@@H]2O[C@H](COP(=O)(O)O)[C@@H](O)[C@@H]2O)c(=O)n1 [N^4 -Oleoyl-5'-PNa, N^4-oleoyl-1-β-D-arabinofuranosylcytosine-5'-phosphate monosodium]",> 50,270,156,103,–
CCCCCCCCCCCCCCCCC(=O)Nc1ccn([C@@H]2O[C@H](CO)[C@@H](O)[C@@H]2O)c(=O)n1 [N^4 -Margaroyl-Ara-C],–,> 397,188,99,solubility [1]: < 0.01 mg/mL
CCCCCCCC/C=C\CCCCCCCC(=O)Nc1ccn([C@@H]2O[C@H](CO)[C@@H](O)[C@@H]2O)c(=O)n1 [N^4 -Oleoyl-Ara-C],–,261,135,94,solubility [1]: 0.05 mg/mL
CCCCCCCCCCCCCCCCCCCCCCCCCCCC(=O)Nc1ccn([C@@H]2O[C@H](COP(=O)(O)O)[C@@H](O)[C@@H]2O)c(=O)n1 [N^4 -Montanoyl-5'-PNa2],> 5,–,–,–,–
CCCCC(=O)Nc1ccn([C@@H]2O[C@H](CO)[C@@H](O)[C@@H]2O)c(=O)n1 [N^4 -Valeryl-Ara-C],–,133,171,191,–
CCCCCCCC/C=C\CCCCCCCC(=O)Nc1ccn([C@@H]2O[C@H](COP(=O)(O)O)[C@@H](O)[C@@H]2O)c(=O)n1 [N^4 -Oleoyl-5'-PNa2],> 250,–,–,–,–
